# Reference: US11433086B2, “Combination of T-cell checkpoint inhibitors with inhibitors of e-selectin or CXCR4, or with heterobifunctional inhibitors of both E-selectin and CXCR4” (GlycoMimetics, Inc., priority 2016, dated 2022)
# How the values were obtained:
# [1] = tested on: Human E-selectin/Ig chimera; assay: Competitive binding assay, sLe^a-polyacrylamide conjugate to immobilized E-selectin; details: sLe^a-polyacrylamide/streptavidin-HRP conjugate
# Procedure: FIG. 21 relates to an experiment carried out to determine the competitive binding activity (IC50) of GMI-1359 against E-selectin and CXCR4. GMI-1359 was assessed for inhibition of sialyl Le^X binding to immobilized E-selectin and α-CXCR4 antibody binding to Raji cells.
# The inhibition assay to screen GMI-1359 as an antagonist of E-selectin was a competitive binding assay, which allowed the determination of IC50 values. Human E-selectin/Ig chimera was immobilized by incubation at 37° C. for 2 hour in 96-well microtiter plates. To reduce nonspecific binding, BSA was added to each well and incubated at room temperature for 2 hours. After incubation with E-selectin/Ig chimera, the plate was washed and serial dilutions of the test compounds were added to the wells in the presence of conjugates of biotinylated, sLe^a-polyacrylamide with streptavidin/horseradish peroxidase and incubated for 2 hours at room temperature. To determine the amount of sLe^a bound to immobilized E-selectin after washing, the peroxidase substrate, 3,3′,5,5′ tetramethylbenzidin (TMB) was added. After 3 minutes, the enzyme reaction was stopped by the addition of H3PO4, and the absorbance of light at a wavelength of 450 nm was determined. […]
# [2] = Assessment of side effects in CT26.WT tumor-bearing mice (body weight, mortality, necropsy); assay type: in vivo
# Procedure: Animals were weighed on each day of treatment. Individual body weights were recorded 3 times weekly. Treatment-related weight loss in excess of 20% was considered unacceptably toxic. In this report, a dosage level is described as tolerated if treatment-related weight loss (during and two weeks after treatment) is <20% and mortality during this period in the absence of potentially lethal tumor burdens is ≤10%. FIG. 6 provides a graph of the percent mean body weight change for the 12 experimental groups.
# Upon death or euthanasia, all animals were necropsied to provide a general assessment of potential cause of death and perhaps target organs for toxicity. The presence or absence of metastases was also noted. Remarkable observations of clinical signs and necropsy findings were tabulated as well as individual and group toxicity findings.
# This is an individual toxicity parameter.
smiles,measurement,setting,value
CCC1CC(C(=O)NCCNCc2ccc(CN3CCCNCCNCCCNCC3)c(Br)c2)CC(OC2OC(CO)C(O)C(O[C@@H](CC3CCCCC3)C(=O)O)C2NC(C)=O)C1OC1OC(C)C(O)C(O)C1O (some centres unmarked) [GMI-1359],inhibition of ligand binding to E-selectin,[1],inhibits ligand binding
same,mean weight gain during the treatment regimen,[2]; Groups 2-6,16.8%
same,treatment-related mortality,[2]; Groups 2-6,no treatment-related mortality
same,weight loss associated with treatment,[2]; Groups 2-6,No weight loss
same,tolerance of treatment,"[2]; Groups 2-6: GMI-1359 40 mg/kg IP QDx20, antibody 10 mg/kg IP Days 3,6,10,13,17",well tolerated
same,mean weight gain during the treatment regimen,[2]; Groups 8-12,7.0%
same,treatment-related mortality,[2]; Groups 8-12,no treatment-related mortality
same,weight loss associated with treatment,[2]; Groups 8-12,No weight loss
same,necropsy findings,"[2]; Groups 8-12, Day 15",unremarkable
same,tolerance of treatment,"[2]; Groups 8-12: GMI-1359 40 mg/kg IP QDx12, antibody 10 mg/kg IP Days 3,6,10,13",well tolerated
same,"tolerance of treatment, summary",[2]; summary over both regimens / all groups,well tolerated
